# Data taken from patent publication US11007194B2, “Method of treating a proliferative disease” (Array BioPharma Inc., priority 2011, dated 2021).
# System: Hmex1906 primary human melanoma tumors
# Experiment: Hmex1906 primary human melanoma xenograft in nude mice, emergence of resistance under continuous vs intermittent dosing
# Type: in vivo
# Conditions: 5 mg/kg bid
# Procedure: Hmex1906 primary human melanoma tumors are implanted at passage 3 into nude mice. The mice were monitored until the implanted tumors reached 200-400 mm^3. Once this size is reached, the mice are dosed bid with 5 mg/kg of a Raf inhibitor (Compound of Formula II) for 4 weeks. Some of the mice continue treatment while others are subject to an intermittent treatment schedule of 4 weeks of treatment and 2 weeks of drug holiday.
smiles,measurement,setting,value
COC(=O)N[C@@H](C)CNc1nccc(-c2cn(C(C)C)nc2-c2cc(Cl)cc(NS(C)(=O)=O)c2F)n1 [Compound of Formula II],emergence of resistance to the BRAF inhibitor,"continuous dosing, nude mice with Hmex1906 tumors (200-400 mm^3 at start)",Resistance emerged in all mice
same,emergence of resistance to the BRAF inhibitor,"intermittent schedule: 4 weeks of treatment and 2 weeks of drug holiday, nude mice with Hmex1906 tumors, 5 mg/kg",no evidence of resistance
same,emergence of resistance to the BRAF inhibitor,"intermittent schedule: 4 weeks of treatment and 2 weeks of drug holiday, nude mice with Hmex1906 tumors, listed as BRAF inhibitor of formula II, 5 mg/kg",delays or prevents the onset of resistance
